Assay results reported in patent publication US11541050B2, “Pyrimidine derivatives for the treatment of viral infections” (JANSSEN SCIENCES IRELAND UC, priority 2011, dated 2023).

Columns and labels:
[1] = biological target: T1, human TLR8 (wild type sequence) (Homo sapiens, UniProt Q9NR97); assay: TLR8 cellular NFκB-luc reporter assay, wild type TLR8; format: cell-based; set-up: unit not given here; conditions: lowest effective concentration, wild type TLR8 (compounds 74 onward)
T1 construct: expressed in transfected cells; host or cells: HEK293
T1 sequence (Q9NR97 27-1041): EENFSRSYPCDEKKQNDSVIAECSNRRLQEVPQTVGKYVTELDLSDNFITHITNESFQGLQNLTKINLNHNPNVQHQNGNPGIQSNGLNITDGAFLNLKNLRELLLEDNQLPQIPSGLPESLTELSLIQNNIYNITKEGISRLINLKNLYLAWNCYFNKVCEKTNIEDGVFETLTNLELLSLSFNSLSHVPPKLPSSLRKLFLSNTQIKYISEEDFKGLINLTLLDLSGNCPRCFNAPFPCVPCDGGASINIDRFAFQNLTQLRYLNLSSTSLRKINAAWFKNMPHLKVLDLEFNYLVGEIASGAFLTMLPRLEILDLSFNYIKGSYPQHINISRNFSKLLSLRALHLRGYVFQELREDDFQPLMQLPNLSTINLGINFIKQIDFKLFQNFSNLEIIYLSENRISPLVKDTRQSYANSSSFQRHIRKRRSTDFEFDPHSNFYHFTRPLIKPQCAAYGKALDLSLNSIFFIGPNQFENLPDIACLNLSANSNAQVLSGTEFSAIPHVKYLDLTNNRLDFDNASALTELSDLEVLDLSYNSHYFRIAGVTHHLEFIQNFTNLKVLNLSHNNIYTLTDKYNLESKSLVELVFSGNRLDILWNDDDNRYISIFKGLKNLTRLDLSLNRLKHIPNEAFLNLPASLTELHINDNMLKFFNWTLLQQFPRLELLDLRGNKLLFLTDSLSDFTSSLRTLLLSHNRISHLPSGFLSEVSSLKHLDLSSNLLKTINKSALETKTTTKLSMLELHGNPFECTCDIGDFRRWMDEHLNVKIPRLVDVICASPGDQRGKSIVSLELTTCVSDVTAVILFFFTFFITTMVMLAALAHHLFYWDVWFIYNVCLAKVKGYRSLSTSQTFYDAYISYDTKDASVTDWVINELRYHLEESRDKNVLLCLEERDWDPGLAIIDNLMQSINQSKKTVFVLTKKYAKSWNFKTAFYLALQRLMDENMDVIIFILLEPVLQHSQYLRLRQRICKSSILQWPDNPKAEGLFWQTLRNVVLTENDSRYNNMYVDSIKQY
Method: (§1) The ability of compounds to activate human TLR7 and/or TLR8 was assessed in a cellular reporter assay using HEK293 cells transiently transfected with a TLR7 or TLR8 expression vector and NFκB-luc reporter construct. In one instance the TLR expression construct expresses the respective wild type sequence or a mutant sequence comprising a deletion in the second leucine-rich repeat of the TLR.
(§2) Briefly, HEK293 cells were grown in culture medium (DMEM supplemented with 10% FCS and 2 mM Glutamine). For transfection of cells in 10 cm dishes, cells were detached with Trypsin-EDTA, transfected with a mix of CMV-TLR7 or TLR8 plasmid (750 ng), NFκB-luc plasmid (375 ng) and a transfection reagent and incubated for 48 hours at 37° C. in a humidified 5% CO2 atmosphere. Transfected cells were then detached with Trypsin-EDTA, washed in PBS and resuspended in medium to a density of 1.67×10^5 cells/mL. Thirty microliters of cells were then dispensed into each well in 384-well plates, where 10 μL of compound in 4% DMSO was already present. Following 6 hours incubation at 37° C., 5% CO2, the luciferase activity was determined by adding 15 μl of Steady Lite Plus substrate (Perkin Elmer) to each well and readout performed on a ViewLux ultraHTS microplate imager (Perkin Elmer). Dose response curves were generated from measurements performed in quadruplicates. Lowest effective concentrations (LEC) values, defined as the concentration that induces an effect which is at least two fold above the standard deviation of the assay, were determined for each compound.

[2] = biological target: T2, human TLR7 (wild type sequence) (Homo sapiens, UniProt Q9NYK1); assay: TLR7 cellular NFκB-luc reporter assay, wild type TLR7; format: cell-based; set-up: unit not given here; conditions: lowest effective concentration, wild type TLR7 (compounds 74 onward)
T2 construct: expressed in transfected cells; host or cells: HEK293
T2 sequence (Q9NYK1 27-1049): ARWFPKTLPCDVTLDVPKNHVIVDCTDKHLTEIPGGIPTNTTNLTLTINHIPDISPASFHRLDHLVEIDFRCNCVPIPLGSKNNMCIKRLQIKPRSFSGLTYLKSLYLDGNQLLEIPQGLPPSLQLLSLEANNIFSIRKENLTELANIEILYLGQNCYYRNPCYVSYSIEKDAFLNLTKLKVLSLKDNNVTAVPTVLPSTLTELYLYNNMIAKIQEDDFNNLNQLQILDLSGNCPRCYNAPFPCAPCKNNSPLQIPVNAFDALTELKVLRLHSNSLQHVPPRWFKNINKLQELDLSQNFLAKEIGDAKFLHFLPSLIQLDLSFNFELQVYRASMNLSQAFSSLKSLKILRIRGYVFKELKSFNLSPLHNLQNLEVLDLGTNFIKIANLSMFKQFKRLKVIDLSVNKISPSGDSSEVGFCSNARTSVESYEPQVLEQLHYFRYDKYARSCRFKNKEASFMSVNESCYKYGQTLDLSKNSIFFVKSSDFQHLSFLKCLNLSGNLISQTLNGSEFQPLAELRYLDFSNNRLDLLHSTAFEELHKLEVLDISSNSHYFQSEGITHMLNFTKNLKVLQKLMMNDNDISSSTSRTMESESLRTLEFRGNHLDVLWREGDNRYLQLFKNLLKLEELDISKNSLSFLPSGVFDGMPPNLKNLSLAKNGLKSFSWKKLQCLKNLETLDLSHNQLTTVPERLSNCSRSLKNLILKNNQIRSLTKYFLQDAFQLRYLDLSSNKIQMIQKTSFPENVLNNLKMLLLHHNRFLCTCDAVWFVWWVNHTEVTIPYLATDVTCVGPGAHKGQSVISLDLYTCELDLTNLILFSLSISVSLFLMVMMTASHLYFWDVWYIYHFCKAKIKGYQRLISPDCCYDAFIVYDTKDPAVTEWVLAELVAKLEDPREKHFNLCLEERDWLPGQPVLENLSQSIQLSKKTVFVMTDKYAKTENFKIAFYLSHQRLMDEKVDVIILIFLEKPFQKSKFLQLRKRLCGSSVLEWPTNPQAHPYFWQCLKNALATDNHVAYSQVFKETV
Method: as §1, §2

[3] = test system: HCV replicon in Huh-7 luc/neo cells; assay: Suppression of HCV replicon replication by conditioned media from compound-treated PBMC; format: cell-based, HCV type 1 b; conditions: Hepatitis C virus; conditioned media from compound-treated PBMC on Huh-7 luc/neo replicon cells (compounds 74 onward); read-out: PBMC HUH-7 EC50
Method: Activation of human TLR7 results in robust production of interferon by plasmacytoid dendritic cells present in human blood. The potential of compounds to induce interferon was evaluated by looking at the antiviral activity in the HCV replicon system upon incubation with conditioned media from peripheral blood mononuclear cells (PBMC). […] The assay utilized the stably transfected cell line Huh-7 luc/neo harboring an RNA encoding a bicistronic expression construct comprising the wild type NS3-NS5B regions of HCV type 1 b translated from an Internal Ribosome Entry Site (IRES) from encephalomyocarditis virus (EMCV), preceded by a reporter gene (Firefly-luciferase) and a selectable marker gene (neoR, neomycine phosphotransferase). The construct is flanked by 5′ and 3′ NTRs (non-translated regions) from HCV type 1 b. Continued culture of the replicon cells in the presence of G418 (neoR) is dependent on the replication of the HCV RNA. The stably transfected replicon cells that replicate HCV RNA autonomously and to high levels, encoding inter alia luciferase, were used for profiling of the conditioned cell culture media.
Briefly, PBMCs were prepared from buffy coats of at least two donors using a standard Ficoll centrifugation protocol. Isolated PBMCs were resuspended in RPMI medium supplemented with 10% human AB serum and 2×10^5 cells/well were dispensed into 384-well plates containing compounds (70 μL total volume). After overnight incubation, 10 μL of supernatant was transferred to 384-well plates containing 2.2×10^3 replicon cells/well in 30 μL (plated the day before). Following 24 hours of incubation, replication was measured by assaying luciferase activity using 40 μL/well Steady Lite Plus substrate (Perkin Elmer) and measured with ViewLux ultraHTS microplate imager (Perkin Elmer). […] Recombinant interferon α-2a (Roferon-A) was used as a standard control compound.

| SMILES | TLR 8 wt LEC [1] | TLR 7 wt LEC [2] | EC50 [3] [nM] |
| --- | --- | --- | --- |
| CCCCNc1nc(N)ncc1OCCCc1ccc(OC)c(OC)c1 [Compound 74] | 1.720 | 0.713 | 157 |
| CCCC[C@@H](CCO)Nc1nc(N)ncc1OCc1ncc(C)c(OC)c1C [Compound 75] | 0.218 | 0.023 | 7 |
| CCCC[C@H](Nc1nc(N)ncc1OCCCc1ccccc1)C(=O)OC [Compound 82] | 13.590 | 4.420 | 14000 |
| CCCCNc1nc(N)ncc1OCCOCc1ccccc1 [Compound 83] | 1.610 | 0.997 | 204 |
| CCCCNc1nc(N)ncc1OCCOc1ccncc1 [Compound 84] | 0.250 | 0.860 | 76 |
| CCCCNc1nc(N)ncc1OCc1nn(C)c(C)c1N [Compound 85] | 2.960 | 0.509 | 209 |
| CCC[C@@H](CCO)Nc1nc(N)ncc1OCc1nccc(OC)c1OC [Compound 87] | 0.567 | 0.013 | 12 |
| CCC(CO)Nc1nc(N)ncc1OC (stereo not shown) [Compound 92] | 14.570 | >25 | 20200 |
| CCCCNc1nc(N)ncc1OCC(=O)c1ccc(OC)cc1 [Compound 94] | 3.170 | 1.590 | 696 |
| CCCCNc1nc(N)ncc1OCc1ccc(F)cc1 [Compound 95] | 2.010 | 2.730 | 726 |
| CCCCCNc1nc(N)ncc1OC(C)c1ccccc1 (stereo not shown) [Compound 96] | 6.340 | >25 | 4310 |
| COc1cnc(N)nc1NCCCCF [Compound 97] | 5.070 | 21.810 | 2640 |
| CCCCNc1nc(N)ncc1O[C@H](C)c1ccccc1 [Compound 98] | 10.100 | >25 | 22000 |
| CCCCNc1nc(N)ncc1O[C@@H](C)c1ccccc1 [Compound 99] | 1.820 | 8.980 | 1280 |
| CCCCNc1nc(N)ncc1OCC1CCCO1 (stereo not shown) [Compound 100] | 6.160 | 18.950 | 5120 |
| CCCCNc1nc(N)ncc1OCc1ccccn1 [Compound 101] | 0.597 | 0.277 | 55 |
| CCCCNc1nc(N)ncc1OCc1cncn1[C@H](C)c1ccccc1 [Compound 102] | 5.690 | 0.141 | 12 |
| CCCCNc1nc(N)ncc1OCc1cccc(C(=O)c2ccccc2)c1 [Compound 103] | 1.270 | 1.190 | 725 |
| CCCCNc1nc(N)ncc1OCC(C)(O)CC (stereo not shown) [Compound 104] | 12.390 | >25 | > 23800 |
| CCCCNc1nc(N)ncc1OCC(C)(C)O [Compound 105] | 22.020 | >25 | 19000 |
| CCCC(COC)Nc1nc(N)ncc1OC (stereo not shown) [Compound 106] | 5.940 | 16.100 | 3150 |
| CCCCNc1nc(N)ncc1OCCCCCc1ccccc1 [Compound 111] |  | 0.257 | 96 |
| CCCCNc1nc(N)ncc1OCCCc1ccc(C(F)(F)F)cc1 [Compound 153] |  | 10.640 | 3430 |
